Data taken from the supplement of paper PMC10307832.

Columns and labels:
Test in all cases: relative viability (nuclei count vs DMSO), 5 days (fraction); higher = more cells survive
Vemurafenib = compound: CCCS(=O)(=O)Nc1ccc(F)c(C(=O)c2c[nH]c3ncc(-c4ccc(Cl)cc4)cc23)c1F [Vemurafenib]
How it was run: (§1)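 Only plates meeting two conditions passed: control CV below 25% and at least one doubling. Lung cancer cell lines, kept overnight at 37 °C in 1536-well plates, were pinned with five library-drug doses (not always all listed) √10 apart on vehicle-anchored plates and grown 5 days without medium change. A one-step fix, permeabilisation and Hoechst stain preceded 4× imaging and MetaXpress nuclear counting. Viability equals treated-well nuclei divided by vehicle-well nuclei, as the median over plates.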

Alpelisib = compound: Cc1nc(NC(=O)N2CCC[C@H]2C(N)=O)sc1-c1ccnc(C(C)(C)C(F)(F)F)c1 [Alpelisib]
How it was run: as §1

OSI-027 = compound: COc1cccc2cc(-c3nc([C@H]4CC[C@H](C(=O)O)CC4)n4ncnc(N)c34)[nH]c12 [OSI-027]
How it was run: as §1

Vemurafenib + Bortezomib = compound: CCCS(=O)(=O)Nc1ccc(F)c(C(=O)c2c[nH]c3ncc(-c4ccc(Cl)cc4)cc23)c1F [Vemurafenib] + CC(C)C[C@H](NC(=O)[C@H](Cc1ccccc1)NC(=O)c1cnccn1)B(O)O [Bortezomib] (partner 0.002 µM)
How it was run: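 Lung cancer cell lines were seeded in 1536-well plates and dosed by pin tool the next day, with either a single drug or a fixed anchor-drug dose combined with five library-drug doses (not always all listed) spaced in √10 steps. Five days later, one step fixed the cells and stained their nuclei (final 0.05% Triton X-100, 1% formaldehyde, 1 ug/ml Hoechst), and nuclei were counted on 4× images. Relative viability is the nuclei count in treated wells divided by the count in vehicle wells, and each value is the median of duplicate plates.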

Cell Line | relative viability (Vemurafenib; 0.03162 µM) | relative viability (Vemurafenib; 0.1 µM) | relative viability (Vemurafenib; 0.3162 µM) | relative viability (Vemurafenib; 1 µM) | relative viability (Alpelisib; 0.04 µM) | relative viability (Alpelisib; 0.1265 µM) | relative viability (Alpelisib; 0.4 µM) | relative viability (Alpelisib; 1.265 µM) | relative viability (Alpelisib; 2 µM, anchor plate) | relative viability (Alpelisib; 4 µM) | relative viability (OSI-027; 0.01 µM) | relative viability (OSI-027; 0.03162 µM) | relative viability (OSI-027; 0.1 µM) | relative viability (OSI-027; 0.3162 µM) | relative viability (OSI-027; 0.5 µM, anchor plate) | relative viability (OSI-027; 1 µM) | relative viability (Vemurafenib + Bortezomib; first compound 0.03162 µM) | relative viability (Vemurafenib + Bortezomib; first compound 0.1 µM) | relative viability (Vemurafenib + Bortezomib; first compound 0.3162 µM) | relative viability (Vemurafenib + Bortezomib; first compound 1 µM)
201T | 0.954 | 0.951 | 0.971 | 0.968 | 0.985 | 0.974 | 0.994 | 0.873 | 1.01 | 0.816 | 0.98 | 0.999 | 0.972 | 0.968 | 0.757 | 0.733 | 1.07 | 0.998 | 1.15 | 1.17
A549 | 0.939 | 0.942 | 0.945 | 0.963 | 0.905 | 0.877 | 0.953 | 0.774 | 0.84 | 0.538 | 0.95 | 0.839 | 0.94 | 0.788 | – | 0.34 | – | – | – | –
A-427 | 0.953 | 0.973 | 0.852 | 0.989 | 0.98 | 0.886 | 0.965 | 0.871 | 1.09 | 0.911 | 0.891 | 0.946 | 0.794 | 0.722 | 0.47 | 0.619 | 0.885 | 0.998 | 0.962 | 1.03
ABC-1 | 0.808 | 0.886 | 0.711 | 0.945 | 1.13 | 0.77 | 0.886 | 0.662 | 1.05 | 0.608 | 0.874 | 1.03 | 0.825 | 0.585 | 0.499 | 0.547 | 0.268 | 0.302 | 0.267 | 0.287
BEN | 0.923 | 0.987 | 0.569 | 0.8 | 0.99 | 0.913 | 1.15 | 1.01 | 1.04 | 0.847 | 0.882 | 0.82 | 0.647 | 0.475 | 0.296 | 0.299 | 0.768 | 0.933 | 0.351 | 0.554
CAL-12T | 0.961 | 0.892 | 1.01 | 0.935 | 0.999 | 0.989 | 1.09 | 0.963 | 1.14 | 0.955 | 0.99 | 0.988 | 0.944 | 0.857 | 0.702 | 0.528 | 0.835 | – | – | 0.974
COR-L23 | 0.943 | 0.979 | 0.927 | 1.09 | 0.959 | 1.09 | 1.08 | 0.837 | 0.739 | 0.786 | 1.11 | 0.94 | 1.04 | 0.943 | 0.769 | 0.537 | 0.925 | 0.941 | 0.832 | 0.912
COR-L 105 | 0.772 | – | 0.908 | 1.03 | 0.931 | 1 | 1.21 | 0.876 | 1.03 | 0.853 | 0.907 | 0.945 | 0.814 | 0.835 | 0.775 | 0.762 | 0.772 | – | 0.485 | 0.759
Calu-6 | 0.932 | 0.956 | 0.849 | 0.974 | 0.981 | 0.976 | 1.1 | 0.941 | 0.98 | 0.922 | 1.12 | 0.954 | 1.03 | 0.907 | – | 0.731 | 0.897 | 0.939 | 0.96 | 0.832
ChaGo-K-1 | 0.958 | 1.02 | 0.863 | 1.01 | 0.973 | 0.875 | 1.02 | 0.871 | – | 0.75 | 0.989 | 0.91 | 0.959 | 0.9 | 0.63 | 0.859 | 0.934 | 0.725 | – | 1.08
EBC-1 | 0.943 | 0.929 | 0.986 | 1.03 | 0.942 | 0.904 | 1.15 | 0.853 | 0.866 | 0.862 | 0.943 | 0.837 | 0.909 | 0.886 | – | 0.361 | 0.453 | 0.553 | 0.622 | 0.741
EKVX | 0.935 | – | 1.03 | 0.988 | 0.927 | 0.921 | 1.12 | 0.821 | 0.893 | 0.614 | 0.984 | 0.914 | 0.93 | 0.889 | 0.693 | 0.582 | 0.895 | – | 1.03 | 1.05
EMC-BAC-2 | 0.893 | 0.977 | 0.624 | 0.826 | 0.95 | 0.821 | 0.981 | 0.672 | 0.751 | 0.604 | 0.938 | 1.02 | 0.824 | 0.644 | 0.39 | 0.474 | 0.984 | 1.02 | 0.899 | 0.835
EPLC-272H | 0.889 | 0.854 | 1.01 | 0.903 | 0.898 | 0.864 | 0.984 | 0.778 | 0.92 | 0.61 | 0.972 | 0.934 | 0.78 | 0.514 | 0.289 | 0.439 | 0.857 | 0.749 | 0.812 | 0.867
H3255 | 0.918 | – | 1.01 | 0.917 | 1.03 | 0.936 | 1.09 | 0.755 | 0.698 | 0.743 | 0.98 | 1.11 | 0.893 | 0.874 | 0.629 | 0.638 | 0.802 | – | 0.612 | 0.681
HARA | 0.892 | 0.652 | 0.701 | 0.864 | 0.921 | 1.17 | 0.995 | 0.817 | 0.805 | 0.504 | 1.02 | 1.01 | 0.791 | 0.936 | 0.498 | 0.55 | 1.08 | – | 0.603 | 1.12
HCC-15 | 0.926 | 1.03 | 0.854 | 0.989 | 1.02 | 0.938 | 1.07 | 0.886 | 0.852 | 0.759 | 0.981 | 0.977 | 0.983 | 0.899 | 0.692 | 0.708 | 0.958 | 1.01 | 0.848 | 0.844
